Results as given in patent US20230176038A1, “Methods for Identifying Modulators of Insect Transient Receptor Potential Channels” (BASF Corporation, priority 2019, published 2023).
Like-named read-outs stand apart in the source and are kept apart here.

Columns and labels:
[1] = target: T1, complexes formed by Nanchung and Water witch proteins (Wtrw + Nan) (Drosophila melanogaster, UniProt Q9VHY7+Q9VUD5); test: Calcium mobilization (fluo-4AM, FLIPR-TETRA) in CHO-K1 cells co-expressing Water witch and Nanchung; format: cell-based
T1 construct: adenoviral co-expression in CHO-K1 cells, fluo-4 calcium FLIPR
T1 sequence (Q9VUD5 1-833): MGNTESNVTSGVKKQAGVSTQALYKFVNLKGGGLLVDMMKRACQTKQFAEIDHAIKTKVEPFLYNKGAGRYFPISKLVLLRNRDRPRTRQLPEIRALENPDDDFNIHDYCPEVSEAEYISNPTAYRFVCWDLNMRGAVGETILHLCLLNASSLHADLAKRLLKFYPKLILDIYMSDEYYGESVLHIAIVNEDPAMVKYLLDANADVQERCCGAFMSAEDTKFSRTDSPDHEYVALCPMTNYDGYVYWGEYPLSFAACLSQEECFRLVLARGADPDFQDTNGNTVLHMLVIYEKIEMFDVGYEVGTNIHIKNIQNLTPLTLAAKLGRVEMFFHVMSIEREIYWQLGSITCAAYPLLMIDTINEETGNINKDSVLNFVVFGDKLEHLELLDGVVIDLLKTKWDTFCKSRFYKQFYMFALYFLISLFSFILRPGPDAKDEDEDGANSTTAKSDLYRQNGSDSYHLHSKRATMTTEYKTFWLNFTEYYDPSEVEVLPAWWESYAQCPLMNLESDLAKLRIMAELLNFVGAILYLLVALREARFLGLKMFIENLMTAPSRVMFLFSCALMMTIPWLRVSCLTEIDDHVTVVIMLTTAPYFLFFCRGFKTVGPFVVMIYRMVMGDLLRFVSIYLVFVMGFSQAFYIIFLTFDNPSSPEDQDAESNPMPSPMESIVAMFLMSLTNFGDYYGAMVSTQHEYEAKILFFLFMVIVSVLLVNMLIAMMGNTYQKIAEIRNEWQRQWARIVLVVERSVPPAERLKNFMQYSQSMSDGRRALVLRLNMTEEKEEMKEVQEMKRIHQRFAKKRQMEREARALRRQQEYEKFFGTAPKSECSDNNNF
T1 sequence (Q9VHY7 1-986): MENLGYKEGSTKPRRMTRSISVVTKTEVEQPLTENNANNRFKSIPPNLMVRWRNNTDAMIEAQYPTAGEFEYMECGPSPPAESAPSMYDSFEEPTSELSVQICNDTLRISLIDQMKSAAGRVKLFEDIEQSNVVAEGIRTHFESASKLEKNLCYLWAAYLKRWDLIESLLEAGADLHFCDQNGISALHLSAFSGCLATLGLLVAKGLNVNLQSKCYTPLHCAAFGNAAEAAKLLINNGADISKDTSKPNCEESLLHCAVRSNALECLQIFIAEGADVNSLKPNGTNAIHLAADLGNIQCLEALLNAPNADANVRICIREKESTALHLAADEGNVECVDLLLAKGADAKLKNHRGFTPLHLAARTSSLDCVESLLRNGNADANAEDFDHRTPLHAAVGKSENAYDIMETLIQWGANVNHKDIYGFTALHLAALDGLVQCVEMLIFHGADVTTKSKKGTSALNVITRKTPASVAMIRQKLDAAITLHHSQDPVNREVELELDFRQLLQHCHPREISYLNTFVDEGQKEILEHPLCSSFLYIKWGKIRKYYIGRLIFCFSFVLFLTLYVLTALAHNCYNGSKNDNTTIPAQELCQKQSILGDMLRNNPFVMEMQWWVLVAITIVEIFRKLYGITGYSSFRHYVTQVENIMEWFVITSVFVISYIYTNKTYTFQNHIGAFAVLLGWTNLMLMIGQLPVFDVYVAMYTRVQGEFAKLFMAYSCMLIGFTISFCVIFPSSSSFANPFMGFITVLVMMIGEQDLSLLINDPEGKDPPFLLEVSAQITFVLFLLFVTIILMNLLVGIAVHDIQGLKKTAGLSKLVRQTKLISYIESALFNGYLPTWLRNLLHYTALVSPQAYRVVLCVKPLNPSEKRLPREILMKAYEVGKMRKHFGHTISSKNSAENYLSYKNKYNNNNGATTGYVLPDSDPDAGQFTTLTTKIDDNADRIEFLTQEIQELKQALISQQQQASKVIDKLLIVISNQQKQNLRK

[2] = target: T2, complexes formed by Nanchung protein and Inactive protein (Nan + Iav) (Drosophila melanogaster, UniProt Q9VUD5+Q9W3W0); test: Competition binding with [3H]-afidopyropen to membranes from CHO-K1 cells co-expressing Nanchung and Inactive; conditions: FIG. 6, [3H]-afidopyropen displacement, Nan (SEQ ID NO 7) C-terminal HA/mCherry, Iav (NP_572353) C-terminal FLAG/AcGFP, pH 7.4, 3 h room temperature, Cheng-Prusoff, read-out: Nan + Iav (Nanchung:Inactive complex) Ki
T2 construct: full-length Iav C-terminally fused to FLAG tags and AcGFP; adenoviral co-expression in CHO-K1, membranes; [3H]-afidopyropen tracer
T2 sequence (Q9VUD5 1-833): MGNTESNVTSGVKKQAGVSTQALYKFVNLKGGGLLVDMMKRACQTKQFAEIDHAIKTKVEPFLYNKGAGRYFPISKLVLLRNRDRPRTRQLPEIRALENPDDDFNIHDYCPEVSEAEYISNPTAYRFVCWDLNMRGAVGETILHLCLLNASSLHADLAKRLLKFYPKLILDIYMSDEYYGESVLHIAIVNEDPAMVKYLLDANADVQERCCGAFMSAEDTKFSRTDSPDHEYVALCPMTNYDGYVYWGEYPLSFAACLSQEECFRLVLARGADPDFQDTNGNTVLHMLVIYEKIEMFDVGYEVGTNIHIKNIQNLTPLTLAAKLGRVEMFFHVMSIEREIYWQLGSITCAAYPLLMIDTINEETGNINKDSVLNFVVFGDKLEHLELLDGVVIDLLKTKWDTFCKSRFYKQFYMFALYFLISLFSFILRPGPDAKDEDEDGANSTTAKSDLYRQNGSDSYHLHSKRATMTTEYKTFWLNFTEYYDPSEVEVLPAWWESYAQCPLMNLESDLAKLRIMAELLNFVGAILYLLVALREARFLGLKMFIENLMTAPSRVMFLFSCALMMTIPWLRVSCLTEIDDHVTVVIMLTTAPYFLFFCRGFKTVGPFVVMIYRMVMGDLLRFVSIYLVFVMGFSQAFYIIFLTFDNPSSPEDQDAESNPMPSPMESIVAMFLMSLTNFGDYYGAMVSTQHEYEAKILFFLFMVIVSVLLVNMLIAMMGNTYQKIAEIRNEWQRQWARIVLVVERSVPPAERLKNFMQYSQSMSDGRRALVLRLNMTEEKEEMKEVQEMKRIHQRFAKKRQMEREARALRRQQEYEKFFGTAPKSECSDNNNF
T2 sequence (Q9W3W0 1-1123): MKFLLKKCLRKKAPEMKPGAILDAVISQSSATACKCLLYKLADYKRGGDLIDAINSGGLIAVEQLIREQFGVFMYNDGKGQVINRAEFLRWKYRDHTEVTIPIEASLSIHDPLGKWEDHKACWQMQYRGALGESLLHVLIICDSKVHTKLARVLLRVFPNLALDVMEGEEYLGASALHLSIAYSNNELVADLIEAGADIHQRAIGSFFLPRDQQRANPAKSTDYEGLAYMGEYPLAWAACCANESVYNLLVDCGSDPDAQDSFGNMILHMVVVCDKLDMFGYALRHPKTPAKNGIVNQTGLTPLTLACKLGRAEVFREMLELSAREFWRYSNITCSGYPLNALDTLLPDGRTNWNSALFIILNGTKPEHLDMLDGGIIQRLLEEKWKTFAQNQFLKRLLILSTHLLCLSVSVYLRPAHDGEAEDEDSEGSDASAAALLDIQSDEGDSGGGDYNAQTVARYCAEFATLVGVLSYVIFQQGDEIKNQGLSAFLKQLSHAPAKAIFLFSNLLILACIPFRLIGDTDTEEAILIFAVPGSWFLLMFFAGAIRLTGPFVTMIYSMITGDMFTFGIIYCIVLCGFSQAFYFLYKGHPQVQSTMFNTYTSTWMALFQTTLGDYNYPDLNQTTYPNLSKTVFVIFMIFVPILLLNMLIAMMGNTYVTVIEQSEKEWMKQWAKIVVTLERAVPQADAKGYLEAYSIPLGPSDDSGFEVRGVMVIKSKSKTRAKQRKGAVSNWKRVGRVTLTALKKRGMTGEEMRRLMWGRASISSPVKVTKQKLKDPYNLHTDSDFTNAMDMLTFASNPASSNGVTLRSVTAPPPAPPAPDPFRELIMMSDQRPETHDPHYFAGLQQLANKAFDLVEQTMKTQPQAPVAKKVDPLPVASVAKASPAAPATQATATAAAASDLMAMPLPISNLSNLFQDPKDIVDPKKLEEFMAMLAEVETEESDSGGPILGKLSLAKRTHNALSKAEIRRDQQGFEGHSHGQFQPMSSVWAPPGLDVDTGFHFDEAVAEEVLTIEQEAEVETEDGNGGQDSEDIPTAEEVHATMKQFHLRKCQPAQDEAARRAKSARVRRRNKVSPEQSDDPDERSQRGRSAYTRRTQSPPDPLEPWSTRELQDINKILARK

[3] = target: T3, complexes formed by Nanchung protein and Water witch protein (Nan + Wtrw) (Drosophila melanogaster, UniProt Q9VHY7+Q9VUD5); test: Competition binding with [3H]-afidopyropen to membranes from CHO-K1 cells co-expressing Nanchung and Water witch; conditions: FIG. 6, [3H]-afidopyropen displacement, Nan (SEQ ID NO 7) C-terminal HA/mCherry, Wtrw (SEQ ID NO 63) C-terminal FLAG/AcGFP, pH 7.4, 3 h room temperature, Cheng-Prusoff, read-out: Nan + Wtrw (Nanchung:Water witch complex) Ki
T3 construct: adenoviral co-expression in CHO-K1, membranes; [3H]-afidopyropen tracer
T3 sequence (Q9VUD5 1-833): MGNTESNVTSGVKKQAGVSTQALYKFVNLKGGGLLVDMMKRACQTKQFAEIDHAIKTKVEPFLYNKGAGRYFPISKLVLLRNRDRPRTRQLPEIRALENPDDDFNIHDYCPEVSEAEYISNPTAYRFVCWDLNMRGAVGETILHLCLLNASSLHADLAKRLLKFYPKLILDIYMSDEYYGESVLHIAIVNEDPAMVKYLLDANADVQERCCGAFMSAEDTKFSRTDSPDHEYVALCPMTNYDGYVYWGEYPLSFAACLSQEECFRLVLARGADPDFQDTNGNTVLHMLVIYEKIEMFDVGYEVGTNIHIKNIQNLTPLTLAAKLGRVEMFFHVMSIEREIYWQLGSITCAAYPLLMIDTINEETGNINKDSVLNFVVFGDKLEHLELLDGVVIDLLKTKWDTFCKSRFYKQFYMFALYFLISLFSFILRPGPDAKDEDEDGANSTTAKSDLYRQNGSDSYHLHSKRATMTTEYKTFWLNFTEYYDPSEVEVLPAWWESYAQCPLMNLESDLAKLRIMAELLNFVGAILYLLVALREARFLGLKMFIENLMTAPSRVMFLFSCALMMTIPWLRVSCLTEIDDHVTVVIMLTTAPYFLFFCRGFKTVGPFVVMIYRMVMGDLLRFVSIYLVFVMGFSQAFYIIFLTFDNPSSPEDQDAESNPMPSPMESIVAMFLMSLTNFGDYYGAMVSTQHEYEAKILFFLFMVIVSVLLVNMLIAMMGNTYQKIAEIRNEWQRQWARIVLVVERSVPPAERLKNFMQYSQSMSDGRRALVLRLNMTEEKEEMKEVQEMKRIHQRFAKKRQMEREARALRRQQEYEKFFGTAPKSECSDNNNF
T3 sequence (Q9VHY7 1-986): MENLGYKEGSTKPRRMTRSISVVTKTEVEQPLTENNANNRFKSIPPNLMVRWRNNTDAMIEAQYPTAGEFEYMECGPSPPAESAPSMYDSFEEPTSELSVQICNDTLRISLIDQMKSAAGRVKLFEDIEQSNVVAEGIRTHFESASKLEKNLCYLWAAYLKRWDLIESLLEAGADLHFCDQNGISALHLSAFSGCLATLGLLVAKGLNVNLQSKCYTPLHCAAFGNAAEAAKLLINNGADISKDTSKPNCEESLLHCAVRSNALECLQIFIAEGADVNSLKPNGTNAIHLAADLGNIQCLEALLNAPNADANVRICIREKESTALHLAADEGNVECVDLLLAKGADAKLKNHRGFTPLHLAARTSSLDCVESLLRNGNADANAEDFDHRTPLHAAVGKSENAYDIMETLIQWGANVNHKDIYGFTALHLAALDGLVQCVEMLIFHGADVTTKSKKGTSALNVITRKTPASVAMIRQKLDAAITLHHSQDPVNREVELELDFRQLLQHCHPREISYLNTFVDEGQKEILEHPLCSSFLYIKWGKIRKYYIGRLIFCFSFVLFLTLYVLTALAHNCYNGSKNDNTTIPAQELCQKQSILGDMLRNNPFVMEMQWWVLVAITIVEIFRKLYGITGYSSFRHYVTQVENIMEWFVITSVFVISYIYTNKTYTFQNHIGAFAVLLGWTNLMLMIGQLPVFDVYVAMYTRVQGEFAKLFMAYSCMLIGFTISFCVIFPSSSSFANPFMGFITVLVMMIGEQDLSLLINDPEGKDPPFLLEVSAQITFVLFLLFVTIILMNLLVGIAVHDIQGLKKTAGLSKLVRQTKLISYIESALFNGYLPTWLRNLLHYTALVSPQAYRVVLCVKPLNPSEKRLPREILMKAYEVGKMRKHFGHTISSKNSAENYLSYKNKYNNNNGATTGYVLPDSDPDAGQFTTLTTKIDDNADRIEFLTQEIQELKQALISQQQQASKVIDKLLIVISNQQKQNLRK

| Structure (SMILES) | EC50 ([1]; FIG. 2B, hamster CHO-K1 cells, adenovirus, Wtrw (SEQ ID NO 63) C-terminal FLAG/AcGFP, Nan (SEQ ID NO 7) C-terminal HA/mCherry, fluo-4AM, 20 mM CaCl2, 0.2% DMSO, 10 min, read-out: Wtrw + Nan (Water witch:Nanchung complex) EC50 (calcium response)) | EC50 [1] | Ki [2] | Ki [3] |
| --- | --- | --- | --- | --- |
| C[C@]1(COC(=O)C2CC2)[C@@H]2C[C@H](O)[C@@]3(C)Oc4cc(-c5cccnc5)oc(=O)c4[C@H](O)[C@@H]3[C@@]2(C)CC[C@@H]1OC(=O)C1CC1 [AP, afidopyropen] | 39 nM |  |  |  |
| CC1=NNC(=O)N(/N=C/c2cccnc2)C1 [Pymetrozine, pymetrozine] |  | 96 nM | 43 nM | 102 nM |
